Test results reported in patent publication US20120053053A1, “PYRIMIDINE DERIVATIVES AND THEIR USE AS HERBICIDES” (SYNGENTA CROP PROTECTION, LLC, priority 2009, published 2012).

Assays:
Format in all cases: in vivo
Setaria faberi (SETFA) [1] = assay: Post-emergence biological efficacy (percentage damage); settings: Setaria faberi, 312 h, dose 1,000 g/ha, evaluated after 13 days, 100=total damage, 0=no damage
Protocol: (§1) Seeds of Alopecurus myosuroides (ALOMY), Setaria faberi (SETFA), Echinochloa crus-galli (ECHCG), Solanum nigrum (SOLNI), Amaranthus retoflexus (AMARE) and Ipomea hederaceae (IPOHE) were sown in standard soil in pots. After cultivation for 8 days under controlled conditions in a glasshouse (at 24/16° C., day/night; 14 hours light; 65% humidity), the plants were sprayed with an aqueous spray solution derived from the formulation of the technical active ingredient in acetone/water (50:50) solution containing 0.5% Tween 20 (polyoxyethylene sorbitan monolaurate, CAS RN 9005-64-5) to give a final dose of 250 or 1000 g/ha of test compound. The test plants were then grown on under controlled conditions in a glasshouse (at 24/16° C., day/night; 14 hours light; 65% humidity) and watered twice daily. After 13 days the test was evaluated (100=total damage to plant; 0=no damage to plant).

[2] = system: Ipomea hederaceae (IPOHE); assay: as above; settings: Ipomoea hederacea, 312 h, dose 1,000 g/ha, evaluated after 13 days, 100=total damage, 0=no damage
Protocol: as §1

[3] = system: Alopecurus myosuroides (ALOMY); assay: as above; settings: Alopecurus myosuroides, 312 h, dose 1,000 g/ha, evaluated after 13 days, 100=total damage, 0=no damage
Protocol: as §1

[4] = system: Amaranthus retoflexus (AMARE); assay: as above; settings: Amaranthus retroflexus, 312 h, dose 1,000 g/ha, evaluated after 13 days, 100=total damage, 0=no damage
Protocol: as §1

[5] = system: Echinochloa crus-galli (ECHCG); assay: as above; settings: Echinochloa crus-galli, 312 h, dose 1,000 g/ha, evaluated after 13 days, 100=total damage, 0=no damage
Protocol: as §1

Solanum nigrum (SOLNI) [6] = assay: as above; settings: Solanum nigrum, 312 h, dose 1,000 g/ha, evaluated after 13 days, 100=total damage, 0=no damage
Protocol: as §1

Setaria faberi (SETFA) [7] = assay: Pre-emergence biological efficacy (percentage damage); settings: Setaria faberi, 312 h, dose 1,000 g/ha, evaluated after 13 days, 100=total damage, 0=no damage
Protocol: (§2) Seeds of Alopecurus myosuroides (ALOMY), Setaria faberi (SETFA), Echinochloa crus-galli (ECHCG), Solanum nigrum (SOLNI), Amaranthus retoflexus (AMARE) and Ipomea hederaceae (IPOHE) were sown in standard soil in pots. After cultivation for one day under controlled conditions in a glasshouse (at 24/16° C., day/night; 14 hours light; 65% humidity), the plants were sprayed with an aqueous spray solution derived from the formulation of the technical active ingredient in acetone/water (50:50) solution containing 0.5% Tween 20 (polyoxyethylene sorbitan monolaurate, CAS RN 9005-64-5) to give a final dose of 250 or 1000 g/ha of test compound. The test plants were then grown under controlled conditions in the glasshouse (at 24/16° C., day/night; 14 hours light; 65% humidity) and watered twice daily. After 13 days the test was evaluated (100=total damage to plant; 0=no damage to plant).

[8] = system: Ipomea hederaceae (IPOHE); assay: as above; settings: Ipomoea hederacea, 312 h, dose 1,000 g/ha, evaluated after 13 days, 100=total damage, 0=no damage
Protocol: as §2

[9] = system: Alopecurus myosuroides (ALOMY); assay: as above; settings: Alopecurus myosuroides, 312 h, dose 1,000 g/ha, evaluated after 13 days, 100=total damage, 0=no damage
Protocol: as §2

[10] = system: Amaranthus retoflexus (AMARE); assay: as above; settings: Amaranthus retroflexus, 312 h, dose 1,000 g/ha, evaluated after 13 days, 100=total damage, 0=no damage
Protocol: as §2

[11] = system: Echinochloa crus-galli (ECHCG); assay: as above; settings: Echinochloa crus-galli, 312 h, dose 1,000 g/ha, evaluated after 13 days, 100=total damage, 0=no damage
Protocol: as §2

Solanum nigrum (SOLNI) [12] = assay: as above; settings: Solanum nigrum, 312 h, dose 1,000 g/ha, evaluated after 13 days, 100=total damage, 0=no damage
Protocol: as §2

Row | SMILES | pest or weed control at 1000 g/ha (Setaria faberi (SETFA) [1]) [%] | pest or weed control at 1000 g/ha [2] [%] | pest or weed control at 1000 g/ha [3] [%] | pest or weed control at 1000 g/ha [4] [%] | pest or weed control at 1000 g/ha [5] [%] | pest or weed control at 1000 g/ha (Solanum nigrum (SOLNI) [6]) [%] | pest or weed control at 1000 g/ha (Setaria faberi (SETFA) [7]) [%] | pest or weed control at 1000 g/ha [8] [%] | pest or weed control at 1000 g/ha [9] [%] | pest or weed control at 1000 g/ha [10] [%] | pest or weed control at 1000 g/ha [11] [%] | pest or weed control at 1000 g/ha (Solanum nigrum (SOLNI) [12]) [%]
1 | C=Cc1c(SC)nc(C2CC2)nc1C(=O)OC [Compound 2-400, 2-cyclopropyl-5-ethenyl-6-methoxycarbonyl-4-methylthio-pyrimidine] | 0 | 60 | 0 | 80 | 0 | 100 | 0 | 60 | 0 | 90 | 0 | 100
2 | C=Cc1c(C(=O)OC)nc(C2CC2)nc1S(C)(=O)=O [Compound 2-402, 2-cyclopropyl-5-ethenyl-6-methoxycarbonyl-4-methylsulphonyl-pyrimidine] | 0 | 50 | 0 | 0 | 0 | 20 | 0 | 0 | 0 | 0 | 0 | 0
3 | COC(=O)c1nc(-c2ccc(Cl)cc2)nc(N)c1C [Compound 5-41] | 30 | 40 | 30 | 100 | 20 | 70 | 30 | 10 | 20 | 100 | 30 | 30
4 | C=Cc1c(N)nc(-c2ccc(Cl)cc2)nc1C(=O)OC [Compound 5-61, 4-Amino-2-(4-chlorophenyl)-5-ethenyl-6-methoxycarbonyl-pyrimidine] | 100 | 100 | 80 | 100 | 90 | 100 | 60 | 90 | 60 | 100 | 60 | 90
5 | C=Cc1c(N)nc(-c2ccc(Br)cc2)nc1C(=O)OC [Compound 6-61, 4-Amino-2-(4-bromophenyl)-5-ethenyl-6-methoxycarbonyl-pyrimidine] | 30 | 70 | 60 | 100 | 50 | 90 | 30 | 80 | 70 | 100 | 50 | 90
6 | C=Cc1c(N)nc(-c2ccc(Cl)c(Cl)c2)nc1C(=O)OC [Compound 9-61, 4-Amino-2-(3,4-dichlorophenyl)-5-ethenyl-6-methoxycarbonyl-pyrimidine] | 0 | 70 | 20 | 100 | 20 | 90 | 0 | 10 | 0 | 90 | 30 | 70
7 | C=Cc1c(N)nc(-c2ccc(Cl)c(C(F)(F)F)c2)nc1C(=O)OC [Compound 14-61, 4-Amino-2-(4-chloro-3-trifluoromethyl-phenyl)-5-ethenyl-6-methoxycarbonyl-pyrimidine] | 0 | 40 | 0 | 10 | 0 | 80 | 10 | 10 | 10 | 60 | 20 | 40
8 | C=Cc1c(N)nc(-c2ccc(Cl)cc2F)nc1C(=O)OC [Compound 15-61, 4-Amino-2-(4-chloro-2-fluorophenyl)-5-ethenyl-6-methoxycarbonyl-pyrimidine] | 70 | 80 | 90 | 100 | 70 | 100 | 70 | 100 | 80 | 100 | 70 | 100
9 | C=Cc1c(N)nc(-c2ccc(Cl)c(F)c2)nc1C(=O)OC [Compound 19-61, 4-Amino-2-(4-chloro-3-fluorophenyl)-5-ethenyl-6-methoxycarbonyl-pyrimidine] | 40 | 100 | 40 | 100 | 60 | 100 | 30 | 100 | 50 | 100 | 70 | 100
10 | C=Cc1c(N)nc(-c2ccc(Cl)c(OC)c2)nc1C(=O)OC [Compound 26-61, 4-Amino-2-(4-chloro-3-methoxyphenyl)-5-ethenyl-6-methoxycarbonyl-pyrimidine] | 0 | 70 | 50 | 100 | 60 | 80 | 0 | 20 | 0 | 100 | 0 | 80
11 | C=Cc1c(N)nc(-c2ccc(Cl)c(OC)c2F)nc1C(=O)O [Compound 27-21, 4-amino-2-(4-chloro-2-fluoro-3-methoxyphenyl)-5-ethenylpyrimidine-6-carboxylic acid] | 100 | 90 | 90 | 100 | 90 | 90 | 100 | 100 | 90 | 100 | 100 | 100
12 | COC(=O)c1nc(-c2ccc(Cl)c(OC)c2F)nc(N)c1C [Compound 27-41] | 80 | 60 | 30 | 100 | 50 | 80 | 10 | 90 | 30 | 50 | 20 | 80
